Measurements: patent publication US12213963B2, “Topical formulation of disease-modifying antirheumatic drug (DMARDs) for the treatment of rheumatoid arthritis, melanoma, squamous cell carcinoma, atopic dermatitis, and psoriasis” (priority 2022, dated 2025)

Assay: Solubility of leflunomide in oils, surfactants and co-surfactants
Assay type: physicochemical
Experimental: Solubility of leflunomide was investigated in various oils, surfactants and co-surfactants. The selected excipients showing good solubility were further screened using turbidimetric method to check the emulsification efficiency of the system. Water titration method was used to select combination of oil, surfactant and co surfactant which provided clear systems with water. Briefly, the drug was dissolved in the oil by vortexing. Surfactant and co-surfactants were added to the oil phase and further titrated with water to check the ease of emulsification. The globule size of these systems was determined. Capryol® 90 and Capmul® PG2L were selected as the oil component. The solubility of the drug was highest in these oils and adequate to achieve the required drug loading. […] Out of the various gelling agents screened, Carbopol® 974P was selected because it formed uniform gel with good texture and consistency.

drug solubility in co-surfactant PEG 400: higher drug solubility | drug solubility in surfactants Tween 20 and Kolliphor RH 40: high drug solubility | solubility of the drug in oils Capryol 90 and Capmul PG2L (compared with other oils screened): highest
SMILES: Cc1oncc1C(=O)Nc1ccc(C(F)(F)F)cc1 [leflunomide]
